From US4743606A, “3-[2-(3',5'-di-t-butyl-4'-hydroxyphenyl)ethenyl]pyridine having anti-inflammatory and anti-arthritic properties” (Boehringer Ingelheim Pharmaceuticals, Inc., priority 1986, dated 1988)
Read-outs that look alike come from different tables or passages of the source.

How the values were obtained:
[1] = system: Polyarthritis (adjuvant-induced, heat-killed Mycobacterium butyricum) in male CD rats; assay: Developing Adjuvant-Induced Polyarthritis in Rats; format: in vivo, rat; details: for % Inhibition: oral, once daily 14 days, non-injected hind paw volume
Method: This test is used to determine the ability of compounds to affect the immunological processes involved in the induction and development of arthritis.
(§1) Polyarthritis is induced in male CD rats (150-170 g) by injection of heat-killed Mycobacterium butyricum. Each animal is given 0.1 ml of a 0.5% (5 mg/ml) adjuvant suspension in light mineral oil injected subcutaneously into the plantar surface of the right hind foot. At least 6 rats are used in each test group. Animals are dosed orally with test compound immediately after adjuvant injection, and once daily for a total of 14 days. Foot volumes are measured 24 hours after the final dose by mercury displacement to the lateral malleolus. Mean displacement volumes and their standard errors are calculated for the non-injected hind paws. Untreated normal and arthritic control groups are used as comparison for test compound effect. Results are expressed as percent of control effect.
The experiments reported here are performed using the same procedures as described in Example 3, except that 4-[2-(3',5'-di-t-butyl-4'-hydroxyphenol)ethenyl]pyridine (prior art) is under assay rather than the compound of the invention.

[2] = system: reverse passive arthus reaction (paw swelling) in rats; assay: Reverse Passive Arthus Reaction; format: in vivo, rat
Method: The reverse passive arthus reaction is initiated by the interaction of antigen and antibody resulting in the formation of a precipitating immune complex, followed by fixation of complement, accumulation of leukocytes, edema and hemorrhage. The immunopathology of rheumatoid arthritis involves many of the parameters found in this reaction.
Test groups (5 rats per group) are dosed orally with compounds one hour prior to the sub-plantar injection into the right hind paw of rabbit anti-ovalbumin antibody (50 μg/0.1 ml). Immediately afterwards, ovalbumin (Sigma, #5503) (5 mg/0.2 ml) is injected i.v. via the tail vein. The right hind paw volume is measured at hourly intervals, from one to four hours after the injection of the immune reactants.
The change in paw volume for each animal is calculated by subtracting the zero hour paw volume (before injection) from the paw volume at the time of measurement. The mean of these values is calculated for each group. Results are expressed as percent inhibition of paw swelling compared to untreated controls.

[3] = system: Human neutrophils (respiratory burst, H2O2 production); assay: Effect of Test Compound on H2O2 Production by Neutrophils (PMNs); format: cell-based; details: for IC50: Homo sapiens, Neutrophil
Source text: During this process molecular oxygen is converted to superoxide anion, which in turn yields hydrogen peroxide, hydroxyl radical and products of myeloperoxidase action. These activated oxygen species contribute to the cells microbiocidal activity. However they have also been reported to contribute to the inflammatory process and tissue destruction in rheumatic diseases [J. Fantone and P. Ward, Amer. […] This assay measures the ability of a test compound to inhibit the respiratory burst process by its effect on hydrogen peroxide production.
Either 10 μL stock solution of test compound or 10 μL medium is added to the appropriate tubes, followed by 1 ml cells in each tube. The tubes are incubated at 37° C. for 15 minutes. To the PMA stimulated group 10 μL/tube 10^-5 M PMA is added. To the opsonized zymosan stimulated group 20 μL/tube 10 mg/ml opsonized zymosan is added. The tubes are mixed gently to disperse cells and stimulus (if any) and 100 μL is pipetted into each of four microtiter plates. The plates are covered and incubated 1 hour at 37° C. in CO2.
After the incubation period 10 μL 1N NaOH is added to each test well to develop the color. A blanking well is made up of 110 μl distilled water.
Mean OD values are calculated for each set of quadruplicate wells. Any artifactual change in absorbance due to a direct drug effect on the detection system is subtracted out from the ΔOD of the stimulated cells+drug tubes. The % inhibition of H2 O2 release by PMA or opsonized zymosan is calculated relative to the "O drug" control for each stimulus as follows: […]

[4] = system: established adjuvant-induced polyarthritis in rats; assay: Established Adjuvant-Induced Polyarthritis in Rats; format: in vivo, rat
Method: as §1
This assay is used to determine the ability of compounds to affect an established chronic inflammatory condition.
Rats in which polyarthritis has become established are selected 14 days after receiving the adjuvant suspension. They are treated daily with oral doses of test compound for 14 days (days 14-27). […] 24 hours after the final dose.

[5] = molecular target: T1, 5-Lipoxygenase (Oryctolagus cuniculus, UniProt G1SNX0); assay: Hydroxyacid Profile Assay of 5-Lipoxygenase Derived Arachidonic Acid Metabolites (5-HETE biosynthesis by glycogen-elicited PMNs); format: cell-based, rabbit
T1 construct: glycogen elicited rabbit PMNs; endogenous in cells; host or cells: glycogen-elicited rabbit polymorphonuclear leucocytes (PMNs)
T1 sequence (G1SNX0 1-674): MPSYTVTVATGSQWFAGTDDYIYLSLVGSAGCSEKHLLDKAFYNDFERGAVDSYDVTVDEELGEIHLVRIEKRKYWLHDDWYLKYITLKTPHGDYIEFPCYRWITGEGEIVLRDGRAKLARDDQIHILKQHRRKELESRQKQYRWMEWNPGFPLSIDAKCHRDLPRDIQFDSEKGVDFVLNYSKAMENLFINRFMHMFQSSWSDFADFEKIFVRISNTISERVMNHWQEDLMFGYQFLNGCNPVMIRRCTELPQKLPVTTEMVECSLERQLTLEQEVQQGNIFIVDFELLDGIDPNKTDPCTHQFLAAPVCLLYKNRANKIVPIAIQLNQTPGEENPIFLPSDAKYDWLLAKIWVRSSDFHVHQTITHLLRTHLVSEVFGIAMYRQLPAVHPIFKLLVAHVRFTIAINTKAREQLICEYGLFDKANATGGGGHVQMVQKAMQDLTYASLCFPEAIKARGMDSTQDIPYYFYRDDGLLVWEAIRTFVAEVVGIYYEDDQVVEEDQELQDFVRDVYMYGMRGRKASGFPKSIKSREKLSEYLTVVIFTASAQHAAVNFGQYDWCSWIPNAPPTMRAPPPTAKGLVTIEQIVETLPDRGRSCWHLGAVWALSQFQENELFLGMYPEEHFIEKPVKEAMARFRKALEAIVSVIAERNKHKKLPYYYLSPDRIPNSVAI
Method: Buffer A (8.70 g NaCl; 0.27 g KCl; 0.42 g Na2 HPO4; 0.76 g KH2 PO4; and 1.00 g dextrose per liter H2 O; pH 7.0) (0.325 ml) is introduced into each of a battery of screwtop culture tubes. Then, a compound (0.100 ml) to be assayed is dispensed into individual tubes. Dose-response curves are determined by triplicate measurements at each concentration. Control tubes receive Buffer A (0.100 ml) in lieu of compound. Next, glycogen elicited rabbit PMNs (2×10^7 cells/tube; 4×10^7 cells/ml (0.500 ml) are added to each tube. The tubes are vortexed and preincubated in a shaking 37° C. water bath for 15 minutes.
Thereafter, the tubes are removed from the water bath and Calcium Ionophore Solution (400 μg/ml A-23187; Sigma Chemical Co., St. Louis, MO) (0.025 ml), ^14 C-arachidonic acid (0.25 μCi in 0.025 ethanol; New England Nuclear Products, Boston, MA) (0.025 ml) and Ca^+2 solution (CaCl2.2H2 O); 105.8 mg/10 ml H2 O) (0.025 ml) are added in that order. The tubes are vortexed and returned to the water bath for 30 minutes. The reaction is then terminated by the addition of HCl (0.8N, 0.025 ml).
Extraction and concentration of ^14 C-labeled 5-HETE is performed as follows. First, a solution (5.01 ml) containing 2 parts ethyl acetate, 3 parts CH2 Cl2 and unlabeled arachidonic acid (0.01 ml) is added to each tube. The tubes are capped and briefly vortexed. The contents of each tube are poured into a polypropylene column fitted with a porous polyethylene disc and Whatman phase separation filter paper. The organic phase is collected by gravity filtration into a conical centrifuge tube, while the aqueous phase is retained in the column by the phase separation paper. Each culture tube is rinsed once with the EtOAc:CH2 Cl2 solution (no arachidonic acid) (0.1 ml) and the wash added to the column. The organic phase is concentrated (to 0.5 ml) using a Savant Speed Vac concentrator (Savant Instruments, Inc., Hicksville, NY).
After concentration of the organic phase, the tubes are vortexed and stored covered on ice. An aliquot (0.01 ml) is then removed for liquid scintillation counting in a Beckman LS7500 Liquid Scintillation Counter (Beckman Instruments Corp., Fullerton, CA). […] This volume is applied to a silica gel covered glass plate in a 10 mm streak. The remaining fluid in the tube is measured via syringe and noted.
The TLC plate is placed in a chromatography chamber containing the following solvent system: CHCl3 :MeOH:HOAc:H2 O(v/v; 90:9:1:0.65). The plate is then air dried and counter on a Berthold Linear TLC Analyzer (Berthold Instruments, Inc., Pittsburgh, PA) for 30 minutes per lane. The integrated area of the 5-HETE band for each compound is converted to percent of control and analyzed.

[6] = system: carrageenan induced paw edema in male CD rats; assay: Carrageenan Induced Paw Edema in Rats; format: in vivo, rat
Method: This test is used to determine the ability of a compound to affect non-immune acute inflammation. Edema is produced in the right hind paw of male CD rats (150±10 g) by the subplantar injection of carrageenan (0.1 ml of a 1 percent suspension in saline). Ten rats are used in each test group. Test compound or its vehicle is administered orally 1 hour prior to carrageenan injection. Paw volume is determined by calculating the amount of mercury displaced after immersing the paw to the level of the lateral malleolus. Foot volumes are measured just prior to test compound administration and again 3 hours after carrageenan injection and the difference designated as edema volume.

[7] = in vivo; details: rat
Method: A 50% ulcerogenic response in the animals tested (UD50) at 200 mg/kg for 4 days is observable when the rats are examined 24 hours after the last dose.

[8] = system: MMC-16 cells, LTC4 release (lipoxygenase pathway); assay: Mouse Mastocytoma Cell Leukotriene Release; format: cell-based
Method: The MMC-16 cell line represents a convenient in vitro model for studying the lipoxygenase pathway and offers an effective screening method by which inhibitory test compounds can be identified.
Cultured MMC-16 cells are suspended in Ca^++ free phosphate buffer at a concentration of 10^7 cells/ml. The cell suspension is distributed into plastic culture tubes, 1 ml/tube. Duplicate tubes are used for each drug concentration tested, with drug solution (0.2 ml) added to each tube. An ionophore control consists of Ca^++ free buffer (0.2 ml) added to two tubes, and a blank (0.4 ml Ca^++ free buffer) added to two tubes. CaCl2 solution (0.1 ml) is added to the drug and ionophore control tubes, which are vortexed and incubated at 37° C. for 40 minutes. The tubes are then centrifuged at 1,000×g for 10 minutes, and the supernatants collected and added to 4 volumes of absolute ethanol. LTC4 content is then assayed for by either radioimmunoassay or high performance liquid chromatography.

## CC(C)(C)c1cc(C=Cc2ccncc2)cc(C(C)(C)C)c1O [4-[2-(3',5'-di-t-butyl-4'-hydroxyphenyl)ethenyl]pyridine, reference compound]
[1]; 50 mg/kg
  % Inhibition: 0%

## CC(C)(C)c1cc(C=Cc2cccnc2)cc(C(C)(C)C)c1O [Compound 1, 3-[2-(3,5-di-t-butyl-4-hydroxyphenyl)ethenyl]-pyridine]
[1]; 5 mg/kg
  % Inhibition: 56%
[1]; 50 mg/kg
  % Inhibition: 82%
[1]; in words
  activity in developing adjuvant arthritis screen in the rat: active
[2]; 1 mg/kg oral, hour 1
  % Inhibition: 17%
[2]; 1 mg/kg oral, hour 2
  % Inhibition: 19%
[2]; 1 mg/kg oral, hour 3
  % Inhibition: 26%
[2]; 1 mg/kg oral, hour 4
  % Inhibition: 10%
[2]; 30 mg/kg oral, hour 1
  % Inhibition: 29%
[2]; 30 mg/kg oral, hour 2
  % Inhibition: 50%
[2]; 30 mg/kg oral, hour 3
  % Inhibition: 55%
[2]; 30 mg/kg oral, hour 4
  % Inhibition: 44%
[2]; 100 mg/kg oral, hour 1
  % Inhibition: 7%
[2]; 100 mg/kg oral, hour 2
  % Inhibition: 48%
[2]; 100 mg/kg oral, hour 3
  % Inhibition: 55%
[2]; 100 mg/kg oral, hour 4
  % Inhibition: 22%
[2]; in words
  activity in reverse passive arthus screen: active
[3]; read-out: Opsonized Zymosan Stimulated Oxidative Burst IC50
  IC50: 14 µM
[3]; read-out: PMA Stimulated Oxidative Burst IC50
  IC50: 25 µM
[3]; in words
  release of pro-inflammatory oxygen metabolites from stimulated neutrophils: inhibited
[4]; 5.0 mg/kg, oral, daily days 14-27
  % Inhibition: 60%
[4]; 10.0 mg/kg, oral, daily days 14-27
  % Inhibition: 74%
[4]; 20.0 mg/kg, oral, daily days 14-27
  % Inhibition: 79%
[4]; 40.0 mg/kg, oral, daily days 14-27
  % Inhibition: 82%
[4]; in words
  activity in established adjuvant arthritis screen in the rat: active
[4]; rat established adjuvant arthritis, oral, daily days 14-27
  ED50: 4 mg/kg
[5]
  IC50: 3 µM
[5]; 5 × 10^-5 M
  inhibition at 50 µM: 66%
[5]; 5 × 10^-6 M
  inhibition at 5 µM: 68%
[5]; 5 × 10^-7 M
  inhibition at 0.5 µM: 18%
[5]; 10^-5 M
  inhibition at 10 µM: 67%
[5]; 10^-6 M
  inhibition at 1 µM: 29%
[5]; in words
  inhibition of 5-lipoxygenase: inhibit
[6]; 100 mg/kg, oral, 1 hour prior to carrageenan, edema at 3 hours
  % Inhibition: 56%
[6]; in words
  activity in carrageenan paw edema screen: active
[7]
  TD50 at 24 h: 200 mg/kg
[8]; 3 × 10^-5 M
  inhibition at 30 µM: 100%
[8]; 3 × 10^-6 M
  inhibition at 3 µM: 18%
[8]; 10^-5 M
  inhibition at 10 µM: 67%
[8]; 10^-6 M
  inhibition at 1 µM: 0%
[8]; LTC4 release, MMC-16 cells
  IC50: 7 µM
